For the compound `Br.CN(C(=O)c1ccc(C(F)(F)F)cc1)c1ccc(Oc2ccc3c(c2)cc(C(=O)N2CCN(Cc4ccc(C#N)cc4)CC2)n3C)nc1` [Example 339, N-(6-{2-[4-(4-Cyanobenzyl)piperazine-1-carbonyl]-1-methyl-1H-indol-5-yloxy}pyridin-3-yl)-N-methyl-4-trifluoromethylbenzamide hydrobromide], the melting point was 251 to 255 °C (dec.).

As for `Cl.Cn1c(C(=O)N2CCN(Cc3ccc(OCC(F)(F)F)cc3)CC2)cc2ccc(Oc3ccc(NC(=O)c4ccc(C(F)(F)F)c(F)c4)cn3)cc21`, the melting point was 259 to 263.2 °C.

As to `COc1ccc(CN2CCN(C(=O)c3cc4cc(Oc5ncc(N(C)C(=O)c6ccc(C(F)(F)F)cc6)cn5)ccc4n3C)CC2)cc1.O=C(O)/C=C\C(=O)O` [Example 381, N-(2-{2-[4-(4-Methoxybenzyl)piperazine-1-carbonyl]-1-methyl-1H-indol-5-yloxy}pyrimidin-5-yl)-N-methyl-4-trifluoromethylbenzamide maleate], the melting point lay in the range of 160 to 161 °C.

In turn, `Br.CN(c1ccc(Oc2ccc3cc(C(=O)N4CCN(Cc5ccc(OCC(F)(F)F)cc5)CC4)n(C)c3c2)nc1)S(=O)(=O)c1ccccc1` [Example 30, N-Methyl-N-[6-(1-methyl-2-{4-[4-(2,2,2-trifluoroethoxy)benzyl]-piperazine-1-carbonyl}-1H-indol-6-yloxy)pyridin-3-yl]benzene-sulfonamide hydrobromide] registered a melting point of 234.6 to 235.2 °C.

For the compound `Br.COCc1ccc(CN2CCN(C(=O)c3cc4cc(Oc5ccc(NC(=O)c6ccc(Cl)c(Cl)c6)cn5)ccc4n3C)CC2)cc1` [Example 375, 3,4-Dichloro-N-(6-{2-[4-(4-methoxymethylbenzyl)piperazine-1-carbonyl]-1-methyl-1H-indol-5-yloxy}pyridin-3-yl)benzamide hydrobromide], the melting point is 244 to 249 °C (dec.).

As to `Br.Br.Cn1c(C(=O)N2CCN(Cc3ccccn3)CC2)cc2cc(Oc3ccc(NC(=O)c4ccc(Cl)c(Cl)c4)cn3)ccc21` [Example 564, 3,4-Dichloro-N-{6-[1-methyl-2-(4-pyridin-2-ylmethylpiperazine-1-carbonyl)-1H-indol-5-yloxy]pyridin-3-yl}benzamide dihydrobromide], the melting point was 231 to 233 °C (dec.).

`COc1ccc(CN2CCN(C(=O)c3cc4cc(Oc5ccc(N(C)C(=O)c6ccc(Cl)c(Cl)c6)cn5)ccc4n3C)CC2)cc1.O=C(O)/C=C\C(=O)O` [Example 347, 3,4-Dichloro-N-(6-{2-[4-(4-methoxybenzyl)piperazine-1-carbonyl]-1-methyl-1H-indol-5-yloxy}pyridin-3-yl)-N-methylbenzamide maleate] returned a melting point of 171 to 172 °C.

Regarding `CCCc1ccc(CN2CCN(C(=O)c3cc4cc(Oc5ccc(N(C)C(=O)c6ccc(C(F)(F)F)cc6)cn5)ccc4n3C)CC2)cc1.O=C(O)/C=C\C(=O)O` [Example 411, N-Methyl-N-(6-{1-methyl-2-[4-(4-propylbenzyl)piperazine-1-carbonyl]-1H-indol-5-yloxy}pyridin-3-yl)-4-trifluoromethyl-benzamide maleate], the melting point lay within 132 to 134 °C.

With `Br.COc1ccc(CN2CCN(C(=O)c3cc4cc(Oc5ccc(NC(=O)c6ccc(Cl)c(Cl)c6)cn5)ccc4n3C)CC2)cc1` [Example 349, 3,4-Dichloro-N-(6-{2-[4-(4-methoxybenzyl)piperazine-1-carbonyl]-1-methyl-1H-indol-5-yloxy}pyridin-3-yl)benzamide hydrobromide], the melting point was 244 to 247 °C (dec.).

In turn, `CC(C)Oc1ccc(CN2CCN(C(=O)c3cc4ccc(Oc5ccc(NC(=O)c6ccc(C(F)(F)F)cc6F)cn5)cc4n3C)CC2)cc1.Cl` gave a melting point of 267.6 to 268.2 °C.

As to `Cc1cc(Oc2ccc3cc(C(=O)N4CCN(Cc5ccc(OC(C)C)cc5)CC4)n(C)c3c2)ncc1N(C)S(=O)(=O)c1ccc(Cl)c(Cl)c1` [Example 313, 3,4-Dichloro-N-(6-{2-[4-(4-isopropoxybenzyl)piperazine-1-carbonyl]-1-methyl-1H-indol-6-yloxy}-4-methylpyridin-3-yl)-N-methylbenzenesulfonamide], the melting point lay in the range of 151 to 151.6 °C.

In the case of `Br.COc1cccc(CN2CCN(C(=O)c3cc4cc(Oc5ccc(N(C)C(=O)c6ccc(C(F)(F)F)cc6)cn5)ccc4n3C)CC2)c1` [Example 351, N-(6-{2-[4-(3-Methoxybenzyl)piperazine-1-carbonyl]-1-methyl-1H-indol-5-yloxy}pyridin-3-yl)-N-methyl-4-trifluoromethylbenzamide hydrobromide], the melting point was 217 to 219 °C.

Consider `Br.Br.Cn1c(C(=O)N2CCN(Cc3cccnc3)CC2)cc2cc(Oc3ccc(NC(=O)c4ccc(Cl)c(Cl)c4)cn3)ccc21` [Example 563, 3,4-Dichloro-N-{6-[1-methyl-2-(4-pyridin-3-ylmethylpiperazine-1-carbonyl)-1H-indol-5-yloxy]pyridin-3-yl}benzamide dihydrobromide], for which the melting point was 249 to 252 °C (dec.).

On to `Br.CCOc1ccc(CN2CCN(C(=O)c3cc4cc(Oc5ccc(NC(=O)c6ccc(Cl)c(Cl)c6)cn5)ccc4n3C)CC2)cc1` [Example 360, 3,4-Dichloro-N-(6-{2-[4-(4-ethoxybenzyl)piperazine-1-carbonyl]-1-methyl-1H-indol-5-yloxy}pyridin-3-yl)benzamide hydrobromide], for which the melting point is 235 to 238 °C (dec.).

In turn, `COc1ccc(C(=O)N2CCN(C(=O)c3cc4cc(Oc5ccc(NC(=O)c6ccc(C(F)(F)F)cc6)cn5)ccc4n3C)CC2)cc1` [Example 240, N-(6-{2-[4-(4-Methoxybenzoyl)piperazine-1-carbonyl]-1-methyl-1H-indol-5-yloxy}pyridin-3-yl)-4-trifluoromethylbenzamide] registered a melting point of 195 to 196 °C.

`Br.Br.Cc1nc(Oc2ccc3c(c2)cc(C(=O)N2CCN(Cc4ccncc4)CC2)n3C)ccc1NC(=O)c1ccc(C(F)(F)F)cc1` [Example 565, N-{2-Methyl-6-[1-methyl-2-(4-pyridin-4-ylmethylpiperazine-1-carbonyl)-1H-indol-5-yloxy]pyridin-3-yl}-4-trifluoromethyl-benzamide dihydrobromide]: the melting point is 223 to 225 °C (dec.).

On to `Br.Cn1c(C(=O)N2CCN(Cc3ccc4c(c3)OCO4)CC2)cc2cc(Oc3ccc(NS(=O)(=O)c4ccc(C(F)(F)F)cc4)cn3)ccc21` [Example 65, N-{6-[2-(4-Benzo[1,3]dioxol-5-ylmethylpiperazine-1-carbonyl)-1-methyl-1H-indol-5-yloxy]pyridin-3-yl}-4-trifluoromethylbenzene-sulfonamide hydrobromide], for which the melting point is 210 to 212 °C.

`Br.CC(C)Cc1ccc(CN2CCN(C(=O)c3cc4ccc(Oc5ccc(N(C)C(=O)c6ccc(C(F)(F)F)cc6)cn5)cc4n3C)CC2)cc1` [Example 430, N-(6-{2-[4-(4-Isobutylbenzyl)piperazine-1-carbonyl]-1-methyl-1H-indol-6-yloxy}pyridin-3-yl)-N-methyl-4-trifluoromethylbenzamide hydrobromide] displayed a melting point of 262 to 265 °C.

In the case of `Cc1ccc(C(=O)N(C)c2ccc(Oc3ccc4cc(C(=O)N5CCN(Cc6ccc(OC(C)C)cc6)CC5)n(C)c4c3)nc2)cc1.Cl`, the melting point fell in the range of 230.1 to 232 °C.

For the compound `Br.Br.CN(C(=O)c1ccc(C(F)(F)F)cc1)c1ccc(Oc2ccc3c(c2)cc(C(=O)N2CCN(Cc4ccc(C#N)cn4)CC2)n3C)nc1` [Example 570, N-(6-{2-[4-(5-Cyanopyridin-2-ylmethyl)piperazine-1-carbonyl]-1-methyl-1H-indol-5-yloxy}pyridin-3-yl)-N-methyl-4-trifluoromethyl-benzamide dihydrobromide], the melting point was in the range of 211 to 215 °C.

Consider `COc1ccc(CN2CCN(C(=O)c3cc4c(C)c(Oc5ccc(N(C)C(=O)c6ccc(C(F)(F)F)cc6)cn5)ccc4n3C)CC2)cc1` [Example 426, N-(6-{2-[4-(4-Methoxybenzyl)piperazine-1-carbonyl]-1,4-dimethyl-1H-indol-5-yloxy}pyridin-3-yl)-N-methyl-4-trifluoromethyl-benzamide], for which the melting point fell in the range of 184 to 186 °C.

In turn, `CC(C)S(=O)(=O)N(C)c1ccc(Oc2ccc3cc(C(=O)N4CCN(Cc5ccc(OCC(F)(F)F)cc5)CC4)n(C)c3c2)nc1.Cl` yielded a melting point of 256.5 to 259.8 °C.

`Br.Cc1cc(Oc2ccc3cc(C(=O)N4CCN(Cc5ccc(OCC(F)(F)F)cc5)CC4)n(C)c3c2)ncc1NC(=O)c1ccc(C(F)(F)F)cc1` [Example 46, N-[4-Methyl-6-(1-methyl-2-{4-[4-(2,2,2-trifluoroethoxy)benzyl]-piperazine-1-carbonyl}-1H-indol-6-yloxy)pyridin-3-yl]-4-tri-fluoromethylbenzamide hydrobromide] showed a melting point of 222.4 to 224.6 °C.

The compound `Cc1cc(CN2CCN(C(=O)c3cc4cc(Oc5ccc(N(C)C(=O)c6ccc(C(F)(F)F)cc6)cn5)ccc4n3C)CC2)no1.O=C(O)/C=C\C(=O)O` [Example 568, N-Methyl-N-(6-{1-methyl-2-[4-(5-methylisoxazol-3-ylmethyl)-piperazine-1-carbonyl]-1H-indol-5-yloxy}pyridin-3-yl)-4-tri-fluoromethylbenzamide maleate] gave a melting point of 112 to 115 °C.

`COc1ccc(CN2CCN(C(=O)c3cc4cc(Oc5ccc(NC(=O)c6ccc(C(F)(F)F)cc6)cn5)ccc4n3C)[C@H](C)C2)cc1.O=C(O)C(=O)O` [Example 393, N-(6-{2-[(R)-4-(4-Methoxybenzyl)-2-methylpiperazine-1-carbonyl]-1-methyl-1H-indol-5-yloxy}pyridin-3-yl)-4-trifluoromethyl-benzamide oxalate] had a melting point of 161 to 163 °C.

With `CN(c1ccc(Oc2ccc3cc(C(=O)N4CCN(Cc5ccc(OCC(F)(F)F)cc5)CC4)n(C)c3c2)nc1)S(=O)(=O)CC(F)(F)F.Cl`, the melting point is 243.4 to 244.4 °C.

On to `Br.CN(C(=O)c1ccc(C(F)(F)F)cc1)c1ccc(Oc2ccc3c(c2)cc(C(=O)N2CCN(Cc4ccc(OC(F)(F)F)cc4)CC2)n3C)nc1` [Example 343, N-Methyl-N-(6-{1-methyl-2-[4-(4-trifluoromethoxybenzyl)-piperazine-1-carbonyl]-1H-indol-5-yloxy}pyridin-3-yl)-4-tri-fluoromethylbenzamide hydrobromide], for which the melting point lay in the range of 213 to 216 °C.

As usually defined, the melting point is the temperature, or range, at which the solid turns liquid.

The values above are taken from US8551999B2, “Heterocyclic compound and pharmaceutical composition thereof” (Otsuka Pharmaceutical Co., Ltd., priority 2007, dated 2013).
